In article PMC10534693, “A High-Performance Liquid Chromatography with Photodiode Array Detection Method for Simultaneous Determination of Three Compounds Isolated from Wikstroemia ganpi: Assessment of the Effects on Cytochrome P450-Mediated Metabolism In Vitro and In Vivo” (Nutrients, 2023):
Like-named read-outs stand apart in the source and are kept apart here.

What was measured:
[1] = In vivo pharmacokinetic study of BUS with or without WGM in rats; conditions: rat, plasma, po, 30 mg/kg; for AUC(0-inf) / Cmax / half-life: mean ± SD, n = 6
Protocol: The blood was immediately centrifuged at 3000× g for 10 min at 4 °C to obtain the plasma, which was pretreated and analyzed using the UPLC-MS/MS method.
(§1) The average plasma pharmacokinetic parameters, including the area under the curve from time 0 extrapolated to infinity (AUCinf) and the terminal half-life (t1/2), were determined using a non-compartment model (WinNonlin Ver. 3.1; Certara, Inc., Princeton, NJ, USA). The peak time (Tmax) and maximal concentration (Cmax) were obtained directly from the observed plasma concentration-time profiles. A t-test was used to compare two unpaired means, and a p-value of below 0.05 was considered statistically significant.

CYP3A = assay: Inhibition of CYP3A-mediated metabolism (disappearance) of buspirone in rat liver S9 fraction; format: in vitro ADME; conditions: 1 μM BUS; for IC50 at 30 min: probe buspirone (BUS), rat liver S9 fraction 1 mg/mL, n = 5
Protocol: CYP isoforms-specific probe substrates were BUS for CYP3A, DIC for CYP2C, and DEX for CYP2D [34, 35, 37]. Dose–response curves assessed metabolic inhibition of BUS in the presence of 1 μM BUS and 10 different concentrations (0, 0.1, 0.5, 1, 2, 5, 10, 20, 50, and 100 μM) of 7-methoxyluteolin-5-O-glucoside, pilloin 5-O-β-D-glucopyranoside or rutarensin. The mixture without substrate and inhibitor was incubated for 5 min at 37 °C, after which the substrate and inhibitor were added to initiate the enzyme reaction. After incubating BUS (reaction time: 30 min), DIC and DEX (reaction time: 60 min) at 37 °C at a speed of 500 oscillations/min, a sample was obtained from the reaction mixture and mixed with cold acetonitrile containing an internal standard (IS) to terminate the reaction. After sample preparation, the samples were analyzed using the ultra-performance liquid chromatography–tandem mass spectrometry (UPLC-MS/MS) method (see the sections entitled ‘Biological Sample Preparation’ and ‘UPLC-MS/MS Conditions’ in the Supplementary Materials).
as §1

[2] = Stability of marker components in WGM sample and reference stock solutions (HPLC-PDA peak area); format: physicochemical; conditions: for Peak Area (%) 6 h / Peak Area (%) 24 h / Peak Area (%) 48 h / Peak Area (%) 72 h: vs 0 h, n = 5; for Decrease of peak area / Increase of peak area: Reference solution
From the text: The developed HPLC-PDA simultaneous analysis conditions were validated according to ICH Q2(R1) guidelines. The validation characteristics included specificity, linearity, detection limit, quantitation limit, precision, recovery, and stability. Specificity is defined as the ability to clearly identify an analyte in a sample containing a mixture of impurities. This was verified by comparing and overlaying the chromatograms and PDA spectra obtained from the WGM samples and the reference mixture to confirm that the retention time (tR), spectral pattern, and maximum absorption wavelength (λmax) of the three reference compounds were consistent. Linearity is a test used to derive calibration curves by obtaining measurements that are directly proportional to the concentration of the substance being examined within a certain range. The stock solutions of 7-methoxyluteolin-5-O-glucoside (1), pilloin 5-O-β-D-glucopyranoside (2), and rutarensin (3) were diluted to six target concentrations (5.0, 50.0, 250.0, 400.0, 500.0, and 600.0 μg/mL) in DMSO/MeOH (50:50, v/v) mixtures, and six replicates (n = 6) were performed for each working solution. The calibration curve was expressed using a linear equation (y = ax + b) through linear regression analysis as a function of the area (y) vs. the concentration (x) of each reference peak, and the slope (a), y-intercept (b), and correlation coefficient (r^2) were calculated. The correlation coefficients for the acceptance criteria exceeded 0.999. The detection limit (DL) and quantitation limit (QL) are the minimum detection and quantitation limits of the analyte in the sample, respectively, that can be reliably quantified. These values were measured using the standard deviation (SD) of the y-intercept (σ) and the slope of the calibration curve (S) derived based on the linearity evaluation and were calculated as follows: DL = 3.3 σ/S and QL = 10 σ/S. Precision is an analytical procedure used to evaluate repeatability and reproducibility. The repeatability of the experiment was assessed by measuring the intra- and inter-day precision. Three reference compounds were repeated five times (n = 5) at low, medium and high concentration levels (10.0, 100.0, and 300.0 µg/mL). Intra-day precision was injected on the same day, while inter-day precision was injected on days 1, 3, and 5. The results were determined using the relative standard deviation (RSD) of the peak area. The %RSD was calculated as follows: RSD (%) = (standard deviation/mean measured amount) × 100. %RSD value of <2% means that the developed HPLC-PDA method is precise and reproducible enough for simultaneous analysis and evaluation of the three compounds. […] The analysis was repeated three times (n = 3), and the measured values were calculated as follows: % recovery = (found concentration-original concentration)/spiked concentration × 100. Stability was used to evaluate the degree of change in the solution concentration with storage conditions and time. […] The stability results were evaluated as the %peak area change and %RSD between the mean peak area of the control group (0 h) and that of the experimental group (6, 24, 48, and 72 h).

[3] = BUS 30 mg/kg oral co-administered with 1 g/kg WGM
[4] = Reference solution (DMSO/MeOH 50:50), 4 °C
[5] = Reference solution (DMSO/MeOH 50:50), R.T.

IC50 at 30 min (CYP3A)	Peak Area (%) 6 h [2, 4]	Peak Area (%) 24 h [2, 4]	Peak Area (%) 48 h [2, 4]	Peak Area (%) 72 h [2, 4]	Peak Area (%) 6 h [2, 5]	Peak Area (%) 24 h [2, 5]	Peak Area (%) 48 h [2, 5]	Peak Area (%) 72 h [2, 5]	Decrease of peak area ([2]; room temperature, after 6 h)	Peak Area (%) 6 h ([2]; WGM solution, 4 °C)	Peak Area (%) 24 h ([2]; WGM solution, 4 °C)	Peak Area (%) 48 h ([2]; WGM solution, 4 °C)	Peak Area (%) 72 h ([2]; WGM solution, 4 °C)	Peak Area (%) 6 h ([2]; WGM solution, R.T.)	Peak Area (%) 24 h ([2]; WGM solution, R.T.)	Peak Area (%) 48 h ([2]; WGM solution, R.T.)	Peak Area (%) 72 h ([2]; WGM solution, R.T.)	SMILES	further results
																		O=C1CC2(CCCC2)CC(=O)N1CCCCN1CCN(c2ncccn2)CC1 [BUS, Buspirone]	Tmax ([1]; 30 mg/kg oral, with or without WGM, read-out: Tmax of BUS): 5 to 15 min; AUC(0-inf) [1, 3]: 1980 ng·h/mL; Cmax [1, 3]: 2020 ± 619 ng/mL; half-life [1, 3]: 103 ± 27 min; Tmax ([1]; BUS 30 mg/kg oral co-administered with 1 g/kg WGM, n = 6, read-out: Tmax (converted)): 5 min; AUC(0-inf) ([1]; BUS alone, 30 mg/kg oral): 1640 ng·h/mL; Cmax ([1]; BUS alone, 30 mg/kg oral): 1630 ± 762 ng/mL; half-life ([1]; BUS alone, 30 mg/kg oral): 111 ± 23 min; Tmax ([1]; BUS alone, 30 mg/kg oral, n = 6, read-out: Tmax (converted)): 10 min
2.73 µM	99.15%	96.60%	96.58%	97.39%	99.46%	98.56%	100.34%	99.03%	0.54%	100.10%	98.87%	98.63%	101.60%	100.80%	100.10%	97.43%	100.99%	COc1cc(O[C@@H]2O[C@H](CO)[C@@H](O)[C@H](O)[C@H]2O)c2c(=O)cc(-c3ccc(O)c(O)c3)oc2c1 [Compound 1, 7-methoxyluteolin-5-O-glucoside]	
18.7 µM	99.29%	102.15%	104.42%	101.79%	101.71%	103.18%	107.58%	103.48%		100.32%	99.18%	98.86%	102.02%	101.41%	101.08%	98.97%	103.35%	COc1cc(O[C@@H]2O[C@H](CO)[C@@H](O)[C@H](O)[C@H]2O)c2c(=O)cc(-c3ccc(OC)c(O)c3)oc2c1 [Compound 2, pilloin 5-O-β-D-glucopyranoside]	Increase of peak area ([2]; 4 °C, after 48 h): 4.42%; Increase of peak area ([2]; R.T., after 48 h): 7.58%; Increase of peak area ([2]; room temperature, after 6 h): 1.71%
	98.02%	99.40%	98.78%	101.22%	96.77%	98.82%	98.54%	98.72%	3.23%	100.19%	99.30%	98.91%	102.15%	101.30%	101.14%	98.98%	103.56%	COc1cc2cc(Oc3ccc4ccc(=O)oc4c3)c(=O)oc2cc1O[C@@H]1O[C@H](COC(=O)CC(C)(O)CC(=O)O)[C@@H](O)[C@H](O)[C@H]1O (some centres unmarked) [Compound 3, rutarensin]	Inhibition of BUS metabolism (dose-response) (CYP3A; rat liver S9 fraction, 0-100 μM marker compound): did not inhibit
